Tests used:
[1] = dog, oral, equivalent to 10 mg/kg nimesulide; mean of 4 dogs; computer fitting (TOP FIT) of plasma levels
Method: (§1) Plasma kinetics were carried out in dog after oral administration of equivalent dosages of nimesulide and inclusion compound nimesulide -β-cyclodextrin according to a crossover scheme. Four male Beagle of body weight between 12.8 and 13.9 kg, fasted for at least 17 hours, were orally administered the following preparations: • A) nimesulide at the dose of 10 mg/kg • B) inclusion compound nimesulide -β-cyclodextrin (molar ratio 1 : 1) at the dose of 46.84 mg/Kg, corresponding to 10 mg/kg of nimesulide.
(§2) The preparations were administered in gelatine capsule after a "wash-out" period of 10 days.
(§3) The blood samples from dogs were collected in heparinized tubes after 1, 2, 3, 4, 5, 6, 8, 24, 28, 32, 48 and 52 hours from the administration of the two preparations. The relative plasma samples were obtained by centrifugation for 15 minutes at 3000 rpm.
(§4) The plasma levels of nimesulide were determined by HPLC with UV detection according to the following procedure: aliquots of plasma up to 2.5 ml were adjusted to 3.5 ml with distilled water and acidified with 1.0 ml of N hydrochloric acid and poured on to a glass column (18 mm i.d. 220 mm of lenght) containing 15 ml of Extralat® Merck. After 15 minutes nimesulide was eluted with two aliquotes of 7.5 ml of dichloromethane containing 5% of methanol. The eluate was evaporated to dryness under reduced pressure and the residue was taken up with 200 µl of 2.5 µg/ml solution of butilhydroxyanisole as internal standard. A suitable amount was therefore injected into a column by using the following chromatographic conditions: • Column RPC₈, 5 µm, 250 x 3 mm i.d. Supelco; • Mobile phase : acetonitrile + water containing 80 mg/l of EDTA in the ratio V/V 37.5 and 62.5 respectively; • Flow rate : 1.0 ml/min. • λ of detection: 230 nm
(§5) The parameters of AUC. Cmax and Tmax were calculated by the plasma levels of nimesulide using a computer fitting system with TOP FIT package and the results were statistically evaluated by the ANOVA TWO WAYS procedure.

in vivo = details: male, Beagle, dog, plasma, po, 10 mg/kg
Method: as §1, §2, §3, §4, §5

SMILES: CS(=O)(=O)Nc1ccc([N+](=O)[O-])cc1Oc1ccccc1 [Preparation A, 4-nitro-2-phenoxy-methansulfonanilide]
- TCmax [1]: 4.4 h
- AUC(0-t) (in vivo): 165 µg·h/mL
- Cmax (in vivo): 12100 ng/mL

Reference: patent EP0534995B1, “INCLUSION COMPOUNDS OF NIMESULIDE WITH CYCLODEXTRINS” (BOEHRINGER INGELHEIM ITALIA S.p.A., priority 1990, dated 1991)
